Results as given in paper PMC4725628 (International Journal of Nanomedicine, 2016).

Tests used:
[1] = mice, 60 mg/kg, within 1 hour
[2] = In vivo pharmacokinetic study in rats; parameters: species or system Sprague Dawley rats
[3] = test system: Caco-2 cells; test: MTT cytotoxicity assay; type: cell-based, human; settings: 10–200 μg/mL
[4] = MTT cytotoxicity assay; type: cell-based, human; settings: human, Caco-2 cells
[5] = Bidirectional transport across Caco-2 cell monolayers; type: in vitro ADME; settings: human
[6] = test system: Caco-2 cell homogenates; test: Degradation in Caco-2 cell homogenates; type: in vitro ADME, human; settings: 37°C, within 120 minutes
[7] = test system: Caco-2 cell monolayers; test: TEER of Caco-2 cell monolayers; type: cell-based, human; settings: Caco-2 monolayers; HM formulations 40 μg/mL, TMC 0.1% w/w
[8] = test system: Caco-2 cells; test: Uptake into Caco-2 cell monolayers; type: in vitro ADME, human
[9] = Sprague Dawley, rat, plasma, po, 60 mg/kg

## COc1ccc2c(c1)[nH]c1c(C)nccc12 [HM, Harmine]
[1]
  Decrease of retention amount in the stomach: about 10%
[2]; Sprague Dawley, rat, plasma, iv, 20 mg/kg
  AUC: 12900 ± 1250 ng·h/mL
[2]; [9]
  AUC: 9760 ± 2340 ng·h/mL
  Cmax: 3110 ± 320 ng/mL
[2]; rats, IG 60 mg/kg versus HM IV 20 mg/kg
  BA (oral bioavailability): 25.25±6.05%
[3]
  Toxicity to Caco-2 cells: almost no toxicity
[4]
  viability at 24 h, 200 μg/mL: > 90%
[5]
  Papp at 2 h: > 1 ×10⁻⁶ cm/s
  Papp at 2 h, 40 μg/mL: 5.11 ± 0.69 ×10⁻⁶ cm/s
[6]
  HM degraded: more than 60%
[7]
  Reduction of TEER: lower than 15%
[8]
  Effect of endocytosis inhibitor CPZ on uptake: did not affect
  Effect of energy inhibitor NaN3 on uptake: did not affect
  Effect of p-gp inhibitor CyA on uptake: did not affect
